{"source": "patent US9420793B2", "about": "“Antiparasitic compounds” (Avista Pharma Solutions, priority 2015, dated 2016)", "key": {"Ctenocephalides felis [1]": {"test_system": "Ctenocephalides felis", "experiment": "Ctenocephalides felis residual contact assay", "conditions": "for Contact EC50: 48 h, fleas", "procedure": "Ctenocephalides felis Residual Contact Assay\nA solution of the test compounds, individually and in combination was dispensed onto a substrate placed into a glass vial. The treated surface was allowed to dry before infesting each vial with 10 adult Ctenocephalides felis. The treated vials were held in a controlled environment and assessment was performed at 6, 24 and 48 hours after application in comparison with untreated controls glass vials and solvent-treated glass vials. Compounds were tested in duplicate and two separate trials (n=4)."}, "R. sanguineus": {"test_system": "R. sanguineus", "experiment": "In vitro tick contact assay, comparison with standards", "procedure": "(§1) A solution of the test compounds was used to coat the inner wall of glass vials and to treat two filter papers. Once dried, one filter paper was placed in the cap of the vial and the other in the bottom of the vial. Each treated vial was infested with 10 ticks. Contact of the ticks with residues was induced by holding the vials in a controlled environment and assessment was performed at 12, 24 and 48 hours after application in comparison with untreated glass vials and solvent-treated glass vials. Compounds were tested in duplicate and two separate trials (n=4)."}, "D. variabilis": {"test_system": "D. variabilis", "experiment": "In vitro tick contact assay, comparison with standards", "procedure": "as §1"}, "A. americanum": {"test_system": "A. americanum", "experiment": "In vitro tick contact assay, comparison with standards", "procedure": "as §1"}, "I. scapularis": {"test_system": "I. scapularis", "experiment": "In vitro tick contact assay, comparison with standards", "procedure": "as §1"}, "Ctenocephalides felis [2]": {"test_system": "Ctenocephalides felis", "conditions": "for Ingestion EC50: fleas", "procedure": "In Vitro Evaluation of Ingestion Activity Against Fleas (Ctenocephalides Felis)\nFor flea ingestion tests, an aliquot of each compound stock was added to organic bovine blood contained in an artificial feeding container, with a final DMSO concentration of 0.5%. Ten newly emerged unfed fleas, Ctenocephalides felis, from a laboratory colony, 0-7 days old, were aspirated into a chamber and exposed to the appropriate feeding container and held in a controlled environment at 35° C. Fleas were evaluated for % mortality at 24, 48, and 72 hours post infestation. Fleas showing normal movement and/or jumping ability were considered viable and those showing no movement after tapping the vials were scored as dead. The compound+blood mixture was replaced every 24 hours."}, "[3]": {"test_system": "Dirofilaria immitis microfilariae", "experiment": "Dirofilaria immitis microfilariae motility assay", "conditions": "72 h, read-out: concentration at which active, microfilariae motility"}, "Aedes aegypti": {"test_system": "Aedes aegypti", "experiment": "In vitro evaluation of ingestion activity against mosquitoes", "conditions": "at 20 hours, compound in bovine blood, read-out: concentration at which active, mosquito ingestion", "experimental": "In Vitro Evaluation of Ingestion Activity Against Mosquitoes (Aedes aegypti)\nA solution of test compounds is added to bovine blood contained in a feeding chamber to reach the desired final concentration. Blood spiked with DMSO is prepared to serve as control. Adult female mosquitoes are introduced at the bottom of the chamber and allowed to feed on blood mixtures containing DMSO or test compounds for 30 minutes. Fully engorged mosquitoes are sorted into clean chambers after the blood meal and monitored for survival over 3 days. Replicates containing 10 mosquitoes are performed with each test compound concentration and results calculated as % mortality at specific time points."}}, "note": "Like-named read-outs stand apart in the source and are kept apart here.", "data": [{"smiles": "Cc1cc(C2=NOC(c3cc(Cl)cc(Cl)c3)(C(F)(F)F)C2)ccc1C(=O)NCC(=O)NCC(F)(F)F", "note": "(stereo not shown) [Fluralaner]", "values": [{"measurement": "Contact EC50", "setting": "Ctenocephalides felis [1]", "value": ">50", "unit": "ppm"}, {"measurement": "R. sanguineus Contact EC50", "setting": "R. sanguineus; 24 h", "value": "37.1 ± 16.3", "unit": "ppm"}, {"measurement": "R. sanguineus Contact EC50", "setting": "R. sanguineus; 48 h", "value": "9.8 ± 5.0", "unit": "ppm"}, {"measurement": "D. variabilis Contact EC50", "setting": "D. variabilis; 24 h", "value": "18.4 ± 3.0", "unit": "ppm"}, {"measurement": "D. variabilis Contact EC50", "setting": "D. variabilis; 48 h", "value": "4.9 ± 1.4", "unit": "ppm"}, {"measurement": "A. americanum Contact EC50", "setting": "A. americanum; 48 h", "value": "20.4 ± 10.7", "unit": "ppm"}, {"measurement": "I. scapularis Contact EC50", "setting": "I. scapularis; 24 h", "value": "6.4 ± 3.3", "unit": "ppm"}, {"measurement": "I. scapularis Contact EC50", "setting": "I. scapularis; 48 h", "value": "1.3 ± 0.2", "unit": "ppm"}, {"measurement": "Ingestion EC50", "setting": "Ctenocephalides felis [2]; 2 h", "value": "1.6 ± 0.7", "unit": "ppm"}, {"measurement": "Ingestion EC50", "setting": "Ctenocephalides felis [2]; 24 h", "value": "0.06 ± 0.02", "unit": "ppm"}]}, {"smiles": "O=C(CC(F)(F)F)N1CC2(C1)OCc1cc(C3=NSC(c4cc(Cl)c(F)c(Cl)c4)(C(F)(F)F)C3)ccc12", "note": "(stereo not shown) [Compound 1, 1-[6-[5-(3,5-dichloro-4-fluoro-phenyl)-5-(trifluoromethyl)-4H-isothiazol-3-yl]spiro[1H-isobenzofuran-3,3′-azetidine]-1′-yl]-3,3,3-trifluoro-propan-1-one]", "values": [{"measurement": "minimal effective concentration", "setting": "[3]", "value": "< 10", "unit": "µM"}, {"measurement": "minimal effective concentration", "setting": "Aedes aegypti", "value": "< 1", "unit": "µg/mL"}, {"measurement": "Contact EC50", "setting": "Ctenocephalides felis [1]", "value": "29.0 ± 0.3", "unit": "ppm"}, {"measurement": "flea potency by contact relative to commercially available standards", "setting": "Ctenocephalides felis [1]; versus fluralaner, afoxolaner", "value": "superior potency by contact"}, {"measurement": "R. sanguineus Contact EC50", "setting": "R. sanguineus; 24 h", "value": "17.0 ± 3.8", "unit": "ppm"}, {"measurement": "R. sanguineus Contact EC50", "setting": "R. sanguineus; 48 h", "value": "4.6 ± 3.0", "unit": "ppm"}, {"measurement": "D. variabilis Contact EC50", "setting": "D. variabilis; 24 h", "value": "12.2 ± 0.6", "unit": "ppm"}, {"measurement": "D. variabilis Contact EC50", "setting": "D. variabilis; 48 h", "value": "5.0 ± 1.6", "unit": "ppm"}, {"measurement": "A. americanum Contact EC50", "setting": "A. americanum; 24 h", "value": "13.5 ± 5.1", "unit": "ppm"}, {"measurement": "A. americanum Contact EC50", "setting": "A. americanum; 48 h", "value": "2.7 ± 0.4", "unit": "ppm"}, {"measurement": "I. scapularis Contact EC50", "setting": "I. scapularis; 24 h", "value": "2.0 ± 0.4", "unit": "ppm"}, {"measurement": "I. scapularis Contact EC50", "setting": "I. scapularis; 48 h", "value": "0.04 ± 0.02", "unit": "ppm"}, {"measurement": "Ingestion EC50", "setting": "Ctenocephalides felis [2]; 2 h", "value": "2.6 ± 0.3", "unit": "ppm"}, {"measurement": "Ingestion EC50", "setting": "Ctenocephalides felis [2]; 24 h", "value": "0.20 ± 0.10", "unit": "ppm"}, {"measurement": "flea potency by ingestion relative to commercially available standards", "setting": "Ctenocephalides felis [2]; versus fluralaner, afoxolaner, (+/−)sarolaner", "value": "comparable potency by ingestion"}]}]}
